The target in series [1] is T1, recombinant human 17β-HSD1 (Homo sapiens, UniProt P14061).
T1 construct: made in house; host or cells: Sd9 (Sf9) insect cells, baculovirus (Bac to Bac Expression System)
T1 sequence (P14061 1-328): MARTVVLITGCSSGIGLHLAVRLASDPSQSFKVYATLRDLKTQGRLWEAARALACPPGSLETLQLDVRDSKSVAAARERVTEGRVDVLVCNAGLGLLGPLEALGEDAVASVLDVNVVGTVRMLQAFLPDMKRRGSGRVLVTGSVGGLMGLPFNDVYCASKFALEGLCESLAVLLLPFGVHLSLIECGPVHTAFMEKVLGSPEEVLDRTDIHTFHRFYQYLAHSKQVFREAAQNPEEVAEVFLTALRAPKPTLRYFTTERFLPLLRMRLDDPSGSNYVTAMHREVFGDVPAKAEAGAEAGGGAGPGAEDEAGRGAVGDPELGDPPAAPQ
In words: Inhibition of recombinant human 17β-HSD1. The conditions noted are these: inhibitor at 1 μM, 30 nM estrone, 1 mM NADPH, 30 min at RT; for inhibition at 1 µM: read-out: 17β-HDS1 Inhibition % at 1 μM. It counts as biochemical. In a few lines:
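Microsomal enzyme from baculovirus-infected insect cells (1 μg/ml) incubated 30 min at RT in 20 mM KH2PO4 pH 7.4 with 30 nM ³H-estrone and 1 mM NADPH, inhibitor at 1 μM or 0.1 μM, 1% DMSO. TCA-stopped; estrone/estradiol separated by radio-HPLC; % inhibition = 100 − % conversion.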

The target in series [2] is T2, recombinant human 17β-HSD2 (Homo sapiens, UniProt P37059).
T2 construct: made in house; host or cells: Sd9 (Sf9) insect cells, baculovirus (Bac to Bac Expression System)
T2 sequence (P37059 1-387): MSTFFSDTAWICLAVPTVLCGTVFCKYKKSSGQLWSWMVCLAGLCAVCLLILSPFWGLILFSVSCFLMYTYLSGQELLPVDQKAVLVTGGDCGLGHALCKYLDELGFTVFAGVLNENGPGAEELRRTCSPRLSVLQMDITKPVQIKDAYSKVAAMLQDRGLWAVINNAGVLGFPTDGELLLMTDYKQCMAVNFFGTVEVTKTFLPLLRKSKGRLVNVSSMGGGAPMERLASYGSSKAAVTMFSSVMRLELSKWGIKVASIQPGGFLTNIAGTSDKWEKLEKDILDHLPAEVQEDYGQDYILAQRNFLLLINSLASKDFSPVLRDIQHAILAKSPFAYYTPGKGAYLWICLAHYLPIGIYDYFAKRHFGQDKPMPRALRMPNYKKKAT
In words: Inhibition of recombinant human 17β-HSD2. It counts as biochemical. Conditions: inhibitor at 1 μM, 50 nM estradiol, 1 mM NADH, 30 min at RT; for inhibition at 1 µM: read-out: 17β-HSD2 Inhibition % at 1 μM. A digest of the protocol: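 Membrane extract of baculovirus-expressed enzyme in Sf9 cells (4 μg/ml) incubated in 20 mM KH2PO4 pH 8.5 with 50 nM estradiol (³H-tracer) and 1 mM NADH, 30 min at RT, 1% DMSO, inhibitor at 1 μM or 0.1 μM. TCA-stopped; estradiol-to-estrone conversion by radio-HPLC; % inhibition = 100 − % conversion.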

For series [3] the following is noted: human, tissue homogenate, 1 h.
Description: The in vitro metabolic stability of the compounds of the invention was determined for exemplified compounds using human liver microsome and homogenate incubations. The incubation time points used with or without appropriate cofactors were 0 min and 60 min. Samples were collected at both time points and substrates were detected using LC/PDA/TOF-MS.

Where “and” joins values, the source holds several entries; their conditions need not be identical. Equal values may be shown once. Where a name gives a salt, the structure may show the parent alone.

For `Cc1cnc(NC(=O)CC[C@@H]2CC(=O)[C@@]3(C)CCC4c5cc6ncoc6cc5CCC4C23)s1` (stereo partly drawn) [Compound 47, 3-((3R,12aS)-12a-methyl-1-oxo-2,3,3a,3b,4,5,10b,11,12,12a-decahydro-1H-cyclopenta[7,8]phenanthro[3,2-d]oxazol-3-yl)-N-(5-methylthiazol-2-yl)propanamide], the inhibition (commonly the relative decrease from the control value, in per cent) at 1 µM came out at 87% in series [1] and 2% in series [2]. Moreover, in series [3], the “In vitro metabolic stability, % remaining after 60 min” value amounted to 48%.
With `Cc1cnc(NC(=O)CC[C@@H]2CC(=O)[C@@]3(C)CCC4c5cc(Br)c(O)c(Br)c5CCC4C23)s1` (stereo partly drawn) [Compound 58, 3-((13S,15R)-2,4-dibromo-3-hydroxy-13-methyl-17-oxo-7,8,9,11,12,13,14,15,16,17-decahydro-6H-cyclopenta[a]phenanthren-15-yl)-N-(5-methylthiazol-2-yl)propanamide], the inhibition at 1 µM in series [1] stood at 95%; in series [2], 5%. The “In vitro metabolic stability, % remaining after 60 min” value in series [3] is recorded as 81%.
`Cc1cnc(NC(=O)CC[C@@H]2CC(=O)[C@@]3(C)CCC4c5ccc(OS(C)(=O)=O)cc5CCC4C23)s1` (stereo partly drawn) [Compound 2, Methanesulphonic acid (13S,15R)-13-methyl-15-[2-(5-methylthiazol-2-ylcarbamoyl)-ethyl]-17-oxo-7,8,9,11,12,13,14,15,16,17-decahydro-6H-cyclopenta[a]phenanthren-3-yl ester]: the inhibition at 1 µM in series [1] was 95%; in series [2], 11%. In addition, the “In vitro metabolic stability, % remaining after 60 min” value in series [3] turned out to be 25%.
Take `Cc1cnc(NC(=O)CC[C@@H]2CC(=O)[C@@]3(C)CCC4c5ccc(OCc6ccccc6)cc5CCC4C23)s1` (stereo partly drawn) [Compound 30, 3-((13S,15R)-3-Benzyloxy-13-methyl-17-oxo-7,8,9,11,12,13,14,15,16,17-decahydro-6H-cyclopenta[a]phenanthren-15-yl)-N-(5-methylthiazol-2-yl)propanamide]: the “In vitro metabolic stability, % remaining after 60 min” value in series [3] is recorded as 74%.
For the molecule `Cc1cnc(NC(=O)CC[C@@H]2CC(=O)[C@@]3(C)CCC4c5ccc(OC(=O)C(C)(C)C)cc5CCC4C23)s1` (stereo partly drawn) [Compound 3, 2,2-Dimethyl-propionic acid (13S,15R)-13-methyl-15-[2-(5-methylthiazol-2-ylcarbamoyl)-ethyl]-17-oxo-7,8,9,11,12,13,14,15,16,17-decahydro-6H-cyclopenta[a]phenanthren-3-yl ester], the “In vitro metabolic stability, % remaining after 60 min” value in series [3] came to 30%.
On to `Cc1cnc(NC(=O)CC[C@@H]2CC(=O)[C@@]3(C)CCC4c5cc(F)ccc5CCC4C23)s1` (stereo partly drawn) [Compound 86, 3-((13S,15R)-2-fluoro-13-methyl-17-oxo-7,8,9,11,12,13,14,15,16,17-decahydro-6H-cyclopenta[a]phenanthren-15-yl)-N-(5-methylthiazol-2-yl)propanamide], for which the figures for the inhibition at 1 µM in series [1] and in series [2] were 92% and 0%, respectively.
For the molecule `Cc1cnc(NC(=O)CC[C@@H]2CC(=O)[C@@]3(C)CCC4c5cc(Br)c(O)cc5CCC4C23)s1` (stereo partly drawn) [Compound 56, 3-((13S,15R)-2-bromo-3-hydroxy-13-methyl-17-oxo-7,8,9,11,12,13,14,15,16,17-decahydro-6H-cyclopenta[a]phenanthren-15-yl)-N-(5-methylthiazol-2-yl)propanamide], the inhibition at 1 µM in series [1] amounted to 93%; in series [2], 18%.
In the same order, the values of `COc1cc2c(cc1C(C)=O)C1CC[C@]3(C)C(=O)C[C@@H](CCC(=O)Nc4ncc(C)s4)C3C1CC2` (stereo partly drawn) [Compound 33, 3-((13S,15R)-2-acetyl-3-methoxy-13-methyl-17-oxo-7,8,9,11,12,13,14,15,16,17-decahydro-6H-cyclopenta[a]phenanthren-15-yl)-N-(5-methylthiazol-2-yl)propanamide] are 71% and 3%.
For `Cc1cnc(NC(=O)CC[C@@H]2CC(=O)[C@@]3(C)CCC4c5ccc(OC(=O)CCC(=O)O)cc5CCC4C23)s1` (stereo partly drawn) [Compound 10, Succinic acid mono-{(13S,15R)-13-methyl-15-[2-(5-methylthiazol-2-ylcarbamoyl)-ethyl]-17-oxo-7,8,9,11,12,13,14,15,16,17-decahydro-6H-cyclopenta[a]phenanthren-3-yl} ester sodium salt], the figures for the inhibition at 1 µM in series [1] and in series [2] were 98% and 1%, respectively.
On the same counts, the results for `Cc1cnc(NC(=O)CC[C@@H]2CC(=O)[C@@]3(C)CCC4c5cc(N)c(O)cc5CCC4C23)s1` (stereo partly drawn) [Compound 37, 3-((13S,15R)-2-amino-3-hydroxy-13-methyl-17-oxo-7,8,9,11,12,13,14,15,16,17-decahydro-6H-cyclopenta[a]phenanthren-15-yl)-N-(5-methylthiazol-2-yl)propanamide] are 88% and 4%.
Turning to `Cc1cnc(NC(=O)CC[C@@H]2CC(=O)[C@@]3(C)CCC4c5ccc(OC(=O)CN(C)C)cc5CCC4C23)s1` (stereo partly drawn) [Compound 26, Dimethylamino-acetic acid (13S,15R)-13-methyl-15-[2-(5-methylthiazol-2-ylcarbamoyl)-ethyl]-17-oxo-7,8,9,11,12,13,14,15,16,17-decahydro-6H-cyclopenta[a]phenanthren-3-yl ester], the figures for the inhibition at 1 µM in series [1] and in series [2] were 96% and 6%, respectively.
In the same order, the values of `Cc1cnc(NC(=O)CC[C@@H]2CC(=O)[C@@]3(C)CCC4c5cc(CN6CCOCC6)c(O)c([N+](=O)[O-])c5CCC4C23)s1` (stereo partly drawn) [Compound 43, 3-((13S,15R)-3-hydroxy-13-methyl-2-(morpholinomethyl)-4-nitro-17-oxo-7,8,9,11,12,13,14,15,16,17-decahydro-6H-cyclopenta[a]phenanthren-15-yl)-N-(5-methylthiazol-2-yl)propanamide] are 94% and 0%.
Turning to `Cc1cnc(NC(=O)CC[C@@H]2CC(=O)[C@@]3(C)CCC4c5cc(C#N)c(O)cc5CCC4C23)s1` (stereo partly drawn) [Compound 91, 3-((13S,15R)-2-cyano-3-hydroxy-13-methyl-17-oxo-7,8,9,11,12,13,14,15,16,17-decahydro-6H-cyclopenta[a]phenanthren-15-yl)-N-(5-methylthiazol-2-yl)propanamide], the results for the inhibition at 1 µM in series [1] and in series [2] were 97% and 1%, respectively.
Regarding `CC(=O)NCC(=O)Oc1ccc2c(c1)CCC1C2CC[C@]2(C)C(=O)C[C@@H](CCC(=O)Nc3ncc(C)s3)C12` (stereo partly drawn) [Compound 11, Acetylamino-acetic acid (13S,15R)-13-methyl-15-[2-(5-methylthiazol-2-ylcarbamoyl)-ethyl]-17-oxo-7,8,9,11,12,13,14,15,16,17-decahydro-6H-cyclopenta[a]phenanthren-3-yl ester], in series [1], the “17β-HDS1 Inhibition % at 1 μM” value is 88% and the inhibition at 1 µM is 87%. Also, the “17β-HSD2 Inhibition % at 1 μM” value in series [2] was 0% and 2%.
With `Cc1cnc(NC(=O)CC[C@@H]2CC(=O)[C@@]3(C)CCC4c5cc(CN6CCOCC6)c(O)cc5CCC4C23)s1` (stereo partly drawn) [Compound 42, 3-((13S,15R)-3-hydroxy-13-methyl-2-(morpholinomethyl)-17-oxo-7,8,9,11,12,13,14,15,16,17-decahydro-6H-cyclopenta[a]phenanthren-15-yl)-N-(5-methylthiazol-2-yl)propanamide], the inhibition at 1 µM is 90% in series [1] and 0% in series [2].
Regarding `Cc1cnc(NC(=O)CC[C@@H]2CC(=O)[C@@]3(C)CCC4c5cc6ncoc6c(F)c5CCC4C23)s1` (stereo partly drawn) [Compound 78, 3-((3R,12aS)-6-fluoro-12a-methyl-1-oxo-2,3,3a,3b,4,5,10b,11,12,12a-decahydro-1H-cyclopenta[7,8]phenanthro[3,2-d]oxazol-3-yl)-N-(5-methylthiazol-2-yl)propanamide], the inhibition at 1 µM was found to be 91% in series [1] and 1% in series [2].
Consider `Cc1cnc(NC(=O)CC[C@@H]2CC(=O)[C@@]3(C)CCC4c5cccc(N)c5CCC4C23)s1` (stereo partly drawn) [Compound 89, 3-((13S,15R)-4-amino-13-methyl-17-oxo-7,8,9,11,12,13,14,15,16,17-decahydro-6H-cyclopenta[a]phenanthren-15-yl)-N-(5-methylthiazol-2-yl)propanamide], for which the inhibition at 1 µM in series [1] is 71%; in series [2] it was 0%.

For the origin of these results see patent publication US10377791B2, “Therapeutically active estratrienthiazole derivatives as inhibitors of 17 B-hydroxysteroid dehydrogenase, type 1” (FORENDO PHARMA LTD, priority 2013, dated 2019).
